Laboratory results published in publication PMC3608532, “Characterization of a Single-Chain Variable Fragment Recognizing a Linear Epitope of Aβ: A Biotechnical Tool for Studies on Alzheimer’s Disease?” (PLoS ONE, 2013).

Key:
Aβ(1-8) = test: SPR binding kinetics to immobilized Aβ(1-8); settings: SPR Biacore X, PBS, 25°C, global fit, scFv-IC16 Langmuir 1:1 model, IC16 bivalent model, ± standard error, SEM
Protocol: (§1) Binding kinetics were determined by SPR using a Biacore™ X (GE Healthcare, UK). Synthetic Aβ peptides were dissolved in 10 mM NaAc, pH 4.0. The CM5 sensor chip surface (GE Healthcare, UK) was activated using N-ethyl-N′-3 […] carbodiimide (EDC) and N-hydroxysuccinimide (NHS) chemistry followed by 2-(2-pyridinyldithio)ethaneamine hydrochloride (PDEA), in order to introduce a reactive thiol group. Aβ was coupled via the C-terminal cysteine to the chip at a flow rate of 5 µl/min, and the remaining active groups were blocked by injecting cysteine. The immobilization procedure was performed according to manufacturer’s recommendation. All kinetic analyses were performed at a flow rate of 20 µl/min in PBS. Varying concentrations of scFv-IC16 (10 to 5000 nM) and IC16 (10 to 1000 nM) were injected. […] When required, the surface was regenerated by injecting 20 µl 50 mM glycine, pH 11.0. The data evaluation was performed using Biaevaluation Software 4.1.1. ScFv-IC16 data were fitted according to the Langmuir 1∶1 binding model, whereas IC16 data were fitted according to the bivalent binding model. Standard errors of equilibrium dissociation constants (KD) were calculated using standard errors of the corresponding association and dissociation rate constants.

Aβ(2-8) = test: SPR binding kinetics to immobilized Aβ(2-8); settings: SPR Biacore X, CM5 chip, PBS, 25°C, global fit; scFv-IC16 Langmuir 1:1 model, IC16 bivalent model; ± standard error; SEM
Protocol: as §1

Aβ(3-8) = test: SPR binding kinetics to immobilized Aβ(3-8); settings: SPR Biacore X, CM5 chip, PBS, 25°C, global fit; scFv-IC16 Langmuir 1:1 model, IC16 bivalent model; ± standard error; SEM
Protocol: as §1

Aβ(pE3-8) = test: SPR binding kinetics to immobilized Aβ(pE3-8); settings: SPR Biacore X, CM5 chip, PBS, 25°C, global fit, IC16 bivalent model
Protocol: as §1

Aβ(8-15) = test: SPR binding kinetics to immobilized Aβ(8-15)
Protocol: as §1

- k on (Aβ(1-8); Aβ peptide coupled via C-terminal cysteine to CM5 chip, 20 µl/min): 3.5±0.02×10^4 M^-1 s^-1
- k off (Aβ(1-8); CM5 chip): 1.8±0.02×10^−3 s^-1
- k off (Aβ(2-8)): 1.54±0.006×10^−3 s^-1
- k on (Aβ(2-8)): 4.85±0.01×10^4 M^-1 s^-1
- k off (Aβ(3-8)): 3.43±0.007×10^−3 s^-1
- k on (Aβ(3-8)): 4.17±0.006×10^4 M^-1 s^-1
- Kd (Aβ(pE3-8); n.d. = no detectable binding (footnote)): 1500 nM
- k off (Aβ(pE3-8); ± standard error, SEM): 63±0.05×10^−3 s^-1
- k on (Aβ(pE3-8); ± standard error, SEM): 4.21±0.008×10^4 M^-1 s^-1
- interaction with Aβ(8-15) (Aβ(8-15)): No interaction
Substance: IC16: monoclonal IgG2a antibody recognizing Aβ(1-8), from hybridoma of mouse immunized with KLH Aβ(1-16)
